Measurements reported in PMC11206519, “Multi-Endpoint Toxicological Assessment of Chrysin Loaded Oil-in-Water Emulsion System in Different Biological Models” (Nanomaterials, 2024).

Tests used:
[1] = tested on: D. melanogaster trans-heterozygous mwh+/+flr3 larvae of the ST cross; experiment: SMART wing spot test, anti-mutagenicity, ST cross
Protocol: The somatic mutation and recombination test, or the wing spot test, using D. melanogaster was employed as an in vivo system to assess the mutagenicity and anti-mutagenicity of chrysin-ES. Two different crosses were conducted: (i) a standard cross (ST) and (ii) a high bioactivation cross (HB). The standard cross larvae were obtained from virgin female of flr3/TM3, Ser crossed with males of mwh/mwh, while the HB cross larvae expressing cytochrome P450 enzymes involved in xenobiotic biotransformation were obtained from virgin females of ORR/ORR; flr^3/In (3LR) TM3, ri p^psep l (3)89Aa bx^34e e Bd^s crossed with males of mwh/mwh. The flies were cultured at a constant temperature of 25 ± 1 °C and 60–70% RH at photoperiod 12:12 (light/dark). To evaluate the mutagenicity of chrysin and chrysin-ES, a hundred larva F1 progenies derived from the above crossing were fed with instant Drosophila medium (Formula 4-24®), Carolina, Burlington, NC, USA) containing chrysin or chrysin-ES (20–120 µg/mL). DI was used as a negative control, while 20 mM urethane (URE) was used as a positive control. The larvae were reared on each medium until pupation at 25 °C. After that, forty wings of surviving flies in each group were collected for mutant analysis. The mutant spots on the wings, including small single spots, large single spots, and twin spots, were counted. The statistical significance was calculated as previously described by Frei and Würgler.
Furthermore, the anti-mutagenicity of the samples was performed by a similar procedure as mentioned above.

[2] = tested on: HEK-293; experiment: MTT cytotoxicity assay; format: cell-based; settings: Homo sapiens, HEK293, 48 h
Protocol: (§1) RAW 264.7 (murine macrophage-like cell), 3T3-L1 adipocyte (murine adipocyte), HEK293 (human embryonic kidney cell), and LX-2 (human hepatic stellate cell) were obtained from American Type Culture Collection (ATCC, Manassas, VA, USA). RAW 264.7 macrophages were cultured as a suspension culture in an ultra-low attachment culture dish, whereas the others were cultured as adherent cells in a cell culture flask. The cells were grown in Dulbecco’s Modified Eagle Medium (DMEM) with L-glutamine, supplemented with 10% fetal bovine serum (FBS) (RAW 264.7, HEK293, and LX-2) or 10% fetal calf serum (FCS) (3T3-L1) and 1% penicillin under 5% CO2, at 37 °C. […] Blank-ES was used as a vehicle control. The amount of blank-ES was equal to chrysin-ES amount that was used for the treatment. The cytotoxicity of chrysin, chrysin-ES, and blank-ES in each cell was determined using an MTT assay. […] Then, the solution was gently removed, and the formazan crystal was dissolved with dimethyl sulfoxide (DMSO). The soluble formazan was measured using a microplate reader (Bio-TEK Synergy Hybrid Reader H4) at 540 nm. The cell viability is directly related to the absorbance of formazan. The percentage of cell viability was calculated using the following equation. Cell viability (%) = (Absorbance (sample))/(Absorbance (control)) × 100

[3] = tested on: LX-2; experiment: MTT cytotoxicity assay; format: cell-based; settings: Homo sapiens, LX-2, 48 h
Protocol: as §1

[4] = tested on: 3T3-L1; experiment: MTT cytotoxicity assay; format: cell-based; settings: Mus musculus, 48 h
Protocol: as §1

[5] = NMU (sodium nitrite 36 mM: methylurea 10 mM) + 20 μg/mL
[6] = decreases cell viability by 20%
[7] = decreases cell viability by 50%

Compound: O=c1cc(-c2ccccc2)oc2cc(O)cc(O)c12 [Chrysin, 5,7-dihydroxyflavone]
- inhibition of MMC mutagenicity ([1]; 40–80 µg/mL): approximately 30%
- Inhibition (%) ([1]; EMS 5 mM + 20 μg/mL): 19%
- Inhibitory Classification ([1]; EMS 5 mM + 20 μg/mL): Negligible
- Mutant spots per individual (number of spots), Large Single ([1]; EMS 5 mM + 20 μg/mL): 1.28 (51)
- Mutant spots per individual (number of spots), Small Single ([1]; EMS 5 mM + 20 μg/mL): 4.88 (195)
- Mutant spots per individual (number of spots), Total ([1]; EMS 5 mM + 20 μg/mL): 6.35 (254)
- Mutant spots per individual (number of spots), Twin ([1]; EMS 5 mM + 20 μg/mL): 0.20 (8)
- Inhibition (%) ([1]; EMS 5 mM + 40 μg/mL): 46%
- Inhibitory Classification ([1]; EMS 5 mM + 40 μg/mL): Moderate
- Mutant spots per individual (number of spots), Large Single ([1]; EMS 5 mM + 40 μg/mL): 0.93 (37)
- Mutant spots per individual (number of spots), Total ([1]; EMS 5 mM + 40 μg/mL): 4.20 (168)
- Mutant spots per individual (number of spots), Twin ([1]; EMS 5 mM + 40 μg/mL): 0.35 (14)
- Inhibition (%) ([1]; EMS 5 mM + 80 μg/mL): 49%
- Inhibitory Classification ([1]; EMS 5 mM + 80 μg/mL): Moderate
- Mutant spots per individual (number of spots), Large Single ([1]; EMS 5 mM + 80 μg/mL): 0.35 (14)
- Mutant spots per individual (number of spots), Small Single ([1]; EMS 5 mM + 80 μg/mL): 3.50 (140)
- Mutant spots per individual (number of spots), Total ([1]; EMS 5 mM + 80 μg/mL): 3.95 (158)
- Mutant spots per individual (number of spots), Twin ([1]; EMS 5 mM + 80 μg/mL): 0.10 (4)
- Inhibition (%) ([1]; EMS 5 mM + 120 μg/mL): 42%
- Inhibitory Classification ([1]; EMS 5 mM + 120 μg/mL): Moderate
- Mutant spots per individual (number of spots), Large Single ([1]; EMS 5 mM + 120 μg/mL): 0.88 (35)
- Mutant spots per individual (number of spots), Small Single ([1]; EMS 5 mM + 120 μg/mL): 3.40 (136)
- Mutant spots per individual (number of spots), Total ([1]; EMS 5 mM + 120 μg/mL): 4.55 (182)
- Mutant spots per individual (number of spots), Twin ([1]; EMS 5 mM + 120 μg/mL): 0.28 (11)
- Inhibition (%) ([1]; MMC 0.05 mM + 20 μg/mL): −1%
- Mutant spots per individual (number of spots), Large Single ([1]; MMC 0.05 mM + 20 μg/mL): 1.45 (58)
- Mutant spots per individual (number of spots), Small Single ([1]; MMC 0.05 mM + 20 μg/mL): 8.05 (322)
- Mutant spots per individual (number of spots), Total ([1]; MMC 0.05 mM + 20 μg/mL): 9.85 (394)
- Mutant spots per individual (number of spots), Twin ([1]; MMC 0.05 mM + 20 μg/mL): 0.35 (14)
- Inhibition (%) ([1]; MMC 0.05 mM + 40 μg/mL): 30%
- Inhibitory Classification ([1]; MMC 0.05 mM + 40 μg/mL): Weak
- Mutant spots per individual (number of spots), Large Single ([1]; MMC 0.05 mM + 40 μg/mL): 1.35 (54)
- Mutant spots per individual (number of spots), Small Single ([1]; MMC 0.05 mM + 40 μg/mL): 4.98 (199)
- Mutant spots per individual (number of spots), Total ([1]; MMC 0.05 mM + 40 μg/mL): 6.85 (274)
- Mutant spots per individual (number of spots), Twin ([1]; MMC 0.05 mM + 40 μg/mL): 0.53 (21)
- Inhibition (%) ([1]; MMC 0.05 mM + 80 μg/mL): 30%
- Inhibitory Classification ([1]; MMC 0.05 mM + 80 μg/mL): Weak
- Mutant spots per individual (number of spots), Large Single ([1]; MMC 0.05 mM + 80 μg/mL): 1.63 (65)
- Mutant spots per individual (number of spots), Small Single ([1]; MMC 0.05 mM + 80 μg/mL): 4.48 (179)
- Mutant spots per individual (number of spots), Total ([1]; MMC 0.05 mM + 80 μg/mL): 6.83 (273)
- Mutant spots per individual (number of spots), Twin ([1]; MMC 0.05 mM + 80 μg/mL): 0.73 (29)
- Inhibition (%) ([1]; MMC 0.05 mM + 120 μg/mL): 77%
- Inhibitory Classification ([1]; MMC 0.05 mM + 120 μg/mL): Strong
- Mutant spots per individual (number of spots), Large Single ([1]; MMC 0.05 mM + 120 μg/mL): 0.58 (23)
- Mutant spots per individual (number of spots), Small Single ([1]; MMC 0.05 mM + 120 μg/mL): 1.50 (60)
- Mutant spots per individual (number of spots), Total ([1]; MMC 0.05 mM + 120 μg/mL): 2.25 (90)
- Mutant spots per individual (number of spots), Twin ([1]; MMC 0.05 mM + 120 μg/mL): 0.18 (7)
- Inhibition (%) ([1]; MMC 0.05 mM + 120 μg/mL, listed as chrysin): approximately 77%
- Inhibition (%) [1, 5]: 89%
- Inhibitory Classification [1, 5]: Strong
- Mutant spots per individual (number of spots), Large Single [1, 5]: 0.03 (1)
- Mutant spots per individual (number of spots), Small Single [1, 5]: 0.15 (6)
- Mutant spots per individual (number of spots), Total [1, 5]: 0.23 (9)
- Mutant spots per individual (number of spots), Twin [1, 5]: 0.05 (2)
- Inhibition (%) ([1]; NMU + 40 μg/mL): 91%
- Inhibitory Classification ([1]; NMU + 40 μg/mL): Strong
- Mutant spots per individual (number of spots), Large Single ([1]; NMU + 40 μg/mL): 0 (0)
- Mutant spots per individual (number of spots), Small Single ([1]; NMU + 40 μg/mL): 0.18 (7)
- Mutant spots per individual (number of spots), Total ([1]; NMU + 40 μg/mL): 0.18 (7)
- Mutant spots per individual (number of spots), Twin ([1]; NMU + 40 μg/mL): 0 (0)
- Inhibition (%) ([1]; NMU + 80 μg/mL): 91%
- Inhibitory Classification ([1]; NMU + 80 μg/mL): Strong
- Mutant spots per individual (number of spots), Large Single ([1]; NMU + 80 μg/mL): 0 (0)
- Mutant spots per individual (number of spots), Small Single ([1]; NMU + 80 μg/mL): 0.18 (7)
- Mutant spots per individual (number of spots), Total ([1]; NMU + 80 μg/mL): 0.18 (7)
- Mutant spots per individual (number of spots), Twin ([1]; NMU + 80 μg/mL): 0 (0)
- Inhibition (%) ([1]; NMU + 120 μg/mL): 90%
- Inhibitory Classification ([1]; NMU + 120 μg/mL): Strong
- Mutant spots per individual (number of spots), Large Single ([1]; NMU + 120 μg/mL): 0.08 (3)
- Mutant spots per individual (number of spots), Small Single ([1]; NMU + 120 μg/mL): 0.13 (5)
- Mutant spots per individual (number of spots), Total ([1]; NMU + 120 μg/mL): 0.20 (8)
- Mutant spots per individual (number of spots), Twin ([1]; NMU + 120 μg/mL): 0 (0)
- Inhibition (%) ([1]; URE 20 mM + 20 μg/mL): 94%
- Inhibitory Classification ([1]; URE 20 mM + 20 μg/mL): Strong
- Mutant spots per individual (number of spots), Large Single ([1]; URE 20 mM + 20 μg/mL): 0 (0)
- Mutant spots per individual (number of spots), Small Single ([1]; URE 20 mM + 20 μg/mL): 0.23 (9)
- Mutant spots per individual (number of spots), Total ([1]; URE 20 mM + 20 μg/mL): 0.23 (9)
- Mutant spots per individual (number of spots), Twin ([1]; URE 20 mM + 20 μg/mL): 0 (0)
- Inhibition (%) ([1]; URE 20 mM + 40 μg/mL): 91%
- Inhibitory Classification ([1]; URE 20 mM + 40 μg/mL): Strong
- Mutant spots per individual (number of spots), Large Single ([1]; URE 20 mM + 40 μg/mL): 0.03 (1)
- Mutant spots per individual (number of spots), Small Single ([1]; URE 20 mM + 40 μg/mL): 0.33 (13)
- Mutant spots per individual (number of spots), Total ([1]; URE 20 mM + 40 μg/mL): 0.35 (14)
- Mutant spots per individual (number of spots), Twin ([1]; URE 20 mM + 40 μg/mL): 0 (0)
- Inhibition (%) ([1]; URE 20 mM + 80 μg/mL): 91%
- Inhibitory Classification ([1]; URE 20 mM + 80 μg/mL): Strong
- Mutant spots per individual (number of spots), Large Single ([1]; URE 20 mM + 80 μg/mL): 0 (0)
- Mutant spots per individual (number of spots), Small Single ([1]; URE 20 mM + 80 μg/mL): 0.35 (14)
- Mutant spots per individual (number of spots), Total ([1]; URE 20 mM + 80 μg/mL): 0.35 (14)
- Mutant spots per individual (number of spots), Twin ([1]; URE 20 mM + 80 μg/mL): 0 (0)
- Inhibition (%) ([1]; URE 20 mM + 120 μg/mL): 86%
- Inhibitory Classification ([1]; URE 20 mM + 120 μg/mL): Strong
- Mutant spots per individual (number of spots), Large Single ([1]; URE 20 mM + 120 μg/mL): 0.03 (1)
- Mutant spots per individual (number of spots), Small Single ([1]; URE 20 mM + 120 μg/mL): 0.55 (22)
- Mutant spots per individual (number of spots), Total ([1]; URE 20 mM + 120 μg/mL): 0.56 (23)
- Mutant spots per individual (number of spots), Twin ([1]; URE 20 mM + 120 μg/mL): 0 (0)
- IC20 [2, 6]: ~53 µM
- IC50 [2, 7]: > 90 µM
- IC20 [3, 6]: ~52 µM
- IC50 [3, 7]: > 90 µM
- IC20 [4, 6]: > 90 µM
- IC50 [4, 7]: > 90 µM
